In publication PMC9865163, “Structural Basis of the Inhibition of L-Methionine γ-Lyase from Fusobacterium nucleatum” (International Journal of Molecular Sciences, 2023):
Counter-ions that a name gives are not always drawn. Like-named read-outs stand apart in the source and are kept apart here. Where a SMILES comes first, the peptide text is derived from it. The star is where a group is joined. PhAc = O=C(Cc1ccccc1)*

What was measured:
Fn1419 [1] = molecular target: T1, Fn1419 (Fusobacterium nucleatum subsp. nucleatum, UniProt Q8RDT4); assay type: biochemical
T1 construct: Fn1419 (GeneBank: AAL95612.1, residues 1–395); His-tag (N); made in house; host or cells: E. coli BL21 (DE3)
Experimental: MGL^Cys activity of Fn1419 was measured as previously reported. Fn1419 (5.75 nM) in assay buffer (40 mM potassium phosphate, pH 7.6, and 10 μM PLP) was mixed with various concentrations of L-cysteine (25, 50, 100, 200, 400, 800, or 1000 μM) and incubated for 15 min at 37 °C. H2S, the reaction product, was then detected based on methylene blue formation. Specifically, 100 μL of solution A (the enzyme reaction solution), 20 μL of solution B (20 mM N′,N′-dimethyl-p-phenylenediamine dihydrochloride and 7.2 M HCl), and 20 μL of solution C (30 mM FeCl3 and 1.2 M HCl) were mixed, and the mixture incubated for 30 min at room temperature.
(§1) Then, 500 μM L-cysteine was added, and the reaction was allowed to proceed for 5 min at 37 °C. The amount of produced H2S was detected indirectly, based on the formation of methylene blue. The reaction mixture consisted of solution A (100 μL), solution B (20 μL), and solution C (20 μL) (the solution composition is described at the enzyme assays) and was incubated for 30 min at 20 °C. The amount of generated methylene blue was detected at 670 nm, using a SpectraMax 190 Microplate Reader (Molecular Devices, San Jose, CA, USA) at 25 °C.

Fn1419 [2] = molecular target: T1, Fn1419; test: IC50 determination on MGL^Cys activity of Fn1419; assay type: biochemical
Experimental: as §1
The concentration of the enzyme was 5.75 nM and the concentration of the six above-mentioned compounds was 500 μM. IC50 values were eventually calculated from non-linear regression curves fitted.

[3] = in vivo; cited from earlier work
[4] = not told; cited from earlier work
[5] = system: antibiotic-resistant S. aureus; settings: antibiotic-resistant S. aureus strains; cited from earlier work
Fn1220 = test: Inhibitory effect of gallic acid on H2S production of Fn1220; assay type: biochemical, Fusobacterium nucleatum; settings: 500 μM gallic acid, 5.75 nM enzyme
Experimental: as §1

E. coli = E. coli strains; cited from earlier work
Pasteurella multocida = Pasteurella multocida strains; cited from earlier work
Mannheimia haemolytica = Mannheimia haemolytica strains; cited from earlier work
Fn1055 = test: Inhibitory effect of gallic acid on H2S production of Fn1055; assay type: biochemical, Fusobacterium nucleatum; settings: 500 μM gallic acid, 5.75 nM enzyme
Experimental: as §1

[6] = 100 μM compound, 5.75 nM Fn1419, 500 μM L-cysteine
[7] = 5.75 nM enzyme, preincubation 20 min at 20 °C, read-out: IC50 (Fn1419 MGL^Cys activity)

T1 sequence (Q8RDT4 whole entry, the tested form may be a part): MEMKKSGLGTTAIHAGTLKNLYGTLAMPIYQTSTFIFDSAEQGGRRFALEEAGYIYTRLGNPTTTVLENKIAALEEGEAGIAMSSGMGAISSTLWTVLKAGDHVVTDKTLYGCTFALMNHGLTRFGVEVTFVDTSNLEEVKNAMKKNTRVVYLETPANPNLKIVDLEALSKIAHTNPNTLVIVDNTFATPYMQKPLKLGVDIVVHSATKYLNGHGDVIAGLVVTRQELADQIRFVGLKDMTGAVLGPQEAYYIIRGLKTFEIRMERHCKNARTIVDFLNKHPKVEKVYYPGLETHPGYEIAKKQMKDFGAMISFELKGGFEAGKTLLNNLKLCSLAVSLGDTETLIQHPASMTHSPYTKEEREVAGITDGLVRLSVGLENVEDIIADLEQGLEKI

Row | Compound | product increase rate (MGL^Cys activity of Fn1419 enhanced) (Fn1419 [1]; [6]) [%] | effect on MGL^Cys enzyme activity of Fn1419 (in words) (Fn1419 [1]; [6]) | other results
1 | C[N+](C)(C)CC(=O)O [betaine-HCl] | 24 |  | 
2 | OC[C@@H](O)[C@@H](O)CO [erythritol] | 16.4 |  | 
3 | C/C=C/C=C/C(=O)[O-].[K+] [potassium sorbate] |  |  | product reduction rate (MGL^Cys activity of Fn1419) (Fn1419 [1]): 5.3%
4 | COc1cc(C(=O)O)cc(OC)c1OC [gallic acid trimethyl ether] |  | did not affect | 
5 | O=C(/C=C/c1ccc(O)c(O)c1)O[C@@H]1C[C@](O)(C(=O)O)C[C@@H](O)[C@H]1O [chlorogenic acid] |  | did not significantly affect enzyme activity | 
6 | CN(C)CCc1ccc(O)cc1.Cl [hordenine HCl] | 32.1 |  | 
7 | O=C(O)/C=C/c1ccc(O)cc1 [p-coumaric, p-coumaric acid] |  | not significantly affected | 
8 | O=C(O)CCCCC1CCSS1 (stereo not drawn) [α-lipoic acid] |  | not significantly affected | 
9 | Cc1ncc(CO)c(CO)c1O [pyridoxine-HCl] |  | did not significantly affect enzyme activity | 
10 | O.O.O.O.O.OC[C@H]1O[C@H](OC[C@H]2O[C@H](O[C@]3(CO)O[C@H](CO)[C@@H](O)[C@@H]3O)[C@H](O)[C@@H](O)[C@@H]2O)[C@H](O)[C@@H](O)[C@H]1O [D-raffinose pentahydrate] | 72.5 |  | 
11 | N[C@@H](Cc1c[nH]c2ccc(O)cc12)C(=O)O [5-hydroxyl tryptophan] | 53.0 |  | 
12 | Cl.NCC(CC(=O)O)c1ccccc1 (stereo not shown) [phenibut HCl] | 61.8 |  | 
13 | CC(=O)N[C@@H](CS)C(=O)O [N-acetyl-cysteine] |  |  | product reduction rate (MGL^Cys activity of Fn1419) (Fn1419 [1]; [6]): 12%
14 | CCOC(=O)CNC(=O)[C@@H]1CCCN1C(=O)Cc1ccccc1 [noopept] (PhAc-Pro-Gly-OEt) | 21.8 |  | 
15 | O=C(O)C1(O)C[C@@H](O)C(O)[C@H](O)C1 (stereo partly drawn) [D-quinic acid] | 35.1 |  | 
16 | OC[C@@H](O)[C@H](O)[C@@H](O)CO [xylitol] |  | did not significantly affect enzyme activity | 
17 | Nc1ncnc2c1ncn2[C@@H]1O[C@H](CO)C[C@H]1O [cordycepin] |  | did not significantly affect enzyme activity | 
18 | C[N+](C)(C)C[C@H](O)CC(=O)[O-] [L-carnitine] |  | did not significantly affect enzyme activity | 
19 | chondroitin sulfate | 5.8 |  | 
20 | O=c1cc(-c2ccc(O)cc2)oc2cc(O)cc(O)c12 [apigenin] |  | not significantly affected | 
21 | Oc1cccc(O)c1O [pyrogallic acid] |  |  | IC50 (Fn1419 [2]): 57 µM; product reduction rate (MGL^Cys activity of Fn1419) (Fn1419 [1]; [6]): 89.8%
22 | O=C(O)c1cccnc1 [niacin] |  |  | effect on MGL^Cys enzyme activity of Fn1419 (in words) (Fn1419 [1]): did not significantly affect enzyme activity

Row | Compound | product increase rate (MGL^Cys activity of Fn1419 enhanced) (Fn1419 [1]; [6]) [%] | effect on MGL^Cys enzyme activity of Fn1419 (in words) (Fn1419 [1]; [6]) | other results
23 | CNCC(O)c1ccc(O)cc1 (stereo not shown) [synephrine] |  |  | product reduction rate (MGL^Cys activity of Fn1419) (Fn1419 [1]; [6]): 32.4%
24 | O=c1c(O)c(-c2ccc(O)cc2)oc2cc(O)cc(O)c12 [kaempferol] |  |  | product reduction rate (MGL^Cys activity of Fn1419) (Fn1419 [1]; [6]): 40.4%
25 | N[C@@H](CCC(=O)O)C(=O)O [L-glutamate] |  | did not significantly affect enzyme activity | 
26 | COc1cc(/C=C/C(=O)CC(=O)/C=C/c2ccc(O)c(OC)c2)ccc1O [curcumin] |  |  | product reduction rate (MGL^Cys activity of Fn1419) (Fn1419 [1]; [6]): 53.9%
27 | O=C1c2c(O)cc(O)cc2O[C@H](c2cc(O)c(O)c(O)c2)[C@H]1O [dihydromyricetin] |  |  | IC50 (Fn1419 [2]; [7]): 23 µM; bioavailability [3]: poor; product reduction rate (MGL^Cys activity of Fn1419) (Fn1419 [1]; [6]): 89.5%; permeability [4]: low
28 | OCc1c[nH]c2ccccc12 [indole-3-carbinol] |  | not significantly affected | 
29 | NCCCC(=O)O [GABA] | 9.9 |  | 
30 | COC(=O)c1cc(O)c(O)c(O)c1 [methyl gallate] |  |  | product reduction rate (MGL^Cys activity of Fn1419) (Fn1419 [1]; [6]): 81.5%
31 | C[N+](C)(C)CCO.O=C([O-])C(O)C(O)C(=O)O (stereo not shown) [choline bitartrate] |  |  | product increase rate (MGL^Cys activity of Fn1419 enhanced) (Fn1419 [1]): 13.3%
32 | CCCCCCCC/C=C\CCCCCCCC(N)=O [oleamide] | 24.6 |  | 
33 | NC(=O)CN1CC(c2ccccc2)CC1=O (stereo not shown) [phenylpiracetam] |  | did not significantly affect enzyme activity | 
34 | O=C1O[C@H]([C@@H](O)CO)C(O)=C1O [vitamin C] |  | did not significantly affect enzyme activity | 
35 | O=C1CCC[C@@H]2[C@H]3CCCN4CCC[C@@H](CN12)[C@@H]34 [matrine] | 4.9 |  | 
36 | C[C@@H]1O[C@@H](OC[C@H]2O[C@@H](Oc3c(-c4ccc(O)c(O)c4)oc4cc(O)cc(O)c4c3=O)[C@H](O)[C@@H](O)[C@@H]2O)[C@H](O)[C@H](O)[C@H]1O [rutin] |  |  | product reduction rate (MGL^Cys activity of Fn1419) (Fn1419 [1]; [6]): 18.2%
37 | CN(CC(=O)O)C(=N)N.O [creatine monohydrate] |  |  | product reduction rate (MGL^Cys activity of Fn1419) (Fn1419 [1]; [6]): 11.2%
38 | O=C(O)c1cc(O)c(O)c(O)c1 [gallic acid] |  |  | growth inhibition (in words) [5]: strongly inhibits the growth; IC50 (Fn1419 [2]): 121 µM; inhibition of Fn1220 (in words) (Fn1220): did not inhibit; growth inhibition (in words) (E. coli): strongly inhibits the growth; growth inhibition (in words) (Pasteurella multocida): strongly inhibits the growth; product reduction rate (MGL^Cys activity of Fn1419) (Fn1419 [1]; [6]): 84.8%; growth inhibition (in words) (Mannheimia haemolytica): strongly inhibits the growth; inhibition of Fn1055 (in words) (Fn1055): did not inhibit
39 | CC(=O)O[C@H](CC(=O)O)C[N+](C)(C)C.[Cl-] [acetyl L-carnitine HCl] |  | not significantly affected | 
40 | COc1cc2c(cc1OC)[C@@H]1Cc3ccc(OC)c(OC)c3CN1CC2 [L-tetrahydropal matrine] | 71.7 |  | 
41 | CCOC(=O)c1cc(O)c(O)c(O)c1 [ethyl gallate] |  |  | IC50 (Fn1419 [2]; [7]): 517 µM; product reduction rate (MGL^Cys activity of Fn1419) (Fn1419 [1]; [6]): 81.9%
42 | C[N+](C)(C)CCOP(=O)([O-])OP(=O)([O-])OC[C@H]1O[C@@H](n2ccc(N)nc2=O)[C@H](O)[C@@H]1O.[Na+] [citicoline sodium] |  | did not significantly affect enzyme activity | 
43 | O[C@H]1[C@H](O)[C@@H](O)[C@H](O)[C@@H](O)[C@H]1O [inositol] |  | did not significantly affect enzyme activity | 
